Some test systems named below: HCT-15 colon; TK-10 renal; UACC-257 melanoma; HS 578T breast; OVCAR-8 ovarian; HL-60(TB) leukemia; CAKI-1 renal; 786-0 renal; NCI-H460 lung; ACHN renal.
What all share (assay): NCI tumour cell line growth inhibition, 48 h

The structures appear in SMILES notation.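 Protocol summary: plate cells (96-well), add compound at 5 concentrations, incubate 48 h, interpolate endpoints linearly. Here, GI50 denotes the concentration required for 50% inhibition of growth. TGI: concentration producing complete growth inhibition.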

With `CC(=O)O[C@@H]1C[C@]2(C(C)C)O[C@@]1(C)[C@@H]1CCC(C)=C1[C@@H]2OC(=O)/C=C/c1ccccc1`, the GI50 with HCT-15 colon is 32.7 µM; in the test with TK-10 renal, 93.2 µM; in the test with UACC-257 melanoma it was 27.8 µM; with HS 578T breast it was 4.79 µM; with OVCAR-8 ovarian, 8.89 µM; with HL-60(TB) leukemia it was 25.1 µM. Also, the GI50 was 13 µM in the test with CAKI-1 renal, 84.3 µM in the test on 786-0 renal, 30.9 µM in the test with NCI-H460 lung and 4.49 µM with ACHN renal. The TGI in the test on HCT-15 colon, with TK-10 renal, with UACC-257 melanoma, in the test on HS 578T breast, in the test on OVCAR-8 ovarian and in the test with HL-60(TB) leukemia was over 100 µM throughout. The TGI with CAKI-1 renal, with 786-0 renal, in the test with NCI-H460 lung and with ACHN renal was over 100 µM each time.
On to `Cc1[nH][nH]c(=O)c1C=Nc1ccc(-c2nc3ccccc3[nH]2)cc1`, for which the GI50 in the test on HCT-15 colon was 22 µM; with TK-10 renal, over 100 µM; in the test with UACC-257 melanoma, 19.9 µM; with HS 578T breast, 29 µM; with OVCAR-8 ovarian it was 20.7 µM; in the test on HL-60(TB) leukemia, 22.6 µM. Further, the GI50 in the test with CAKI-1 renal is 19.1 µM; with 786-0 renal it was 18.9 µM; in the test with NCI-H460 lung, 33.3 µM; in the test on ACHN renal it was 30.1 µM. For the same molecule, the TGI with HCT-15 colon was 55.6 µM; in the test with TK-10 renal, over 100 µM; in the test with UACC-257 melanoma it was 42.1 µM; in the test on HS 578T breast it was 63.9 µM; in the test with OVCAR-8 ovarian, 54.6 µM; in the test with HL-60(TB) leukemia it was over 100 µM. The TGI in the test with CAKI-1 renal was 51.2 µM; with 786-0 renal it was 38.3 µM; in the test with NCI-H460 lung, over 100 µM; with ACHN renal, over 100 µM.
Consider `CN(C)Cc1c[nH]c2c1C(=O)c1c(c(O)c3ccccc3c1O)C2=O`, for which the GI50 in the test on HCT-15 colon was 5.02 µM; with TK-10 renal, 5.08 µM; with UACC-257 melanoma, 19.7 µM; in the test on HS 578T breast, 10.9 µM; in the test with OVCAR-8 ovarian, 8.56 µM; with HL-60(TB) leukemia, 17.2 µM. Further, the GI50 in the test on CAKI-1 renal was 10.8 µM; in the test with 786-0 renal, 10.5 µM; with NCI-H460 lung it was 3.54 µM; in the test on ACHN renal, 7.08 µM. For the same molecule, the TGI in the test with HCT-15 colon was determined as 16.2 µM; in the test with TK-10 renal it was 19.7 µM; in the test with UACC-257 melanoma it was 35.4 µM; in the test with HS 578T breast, 26.7 µM; in the test on OVCAR-8 ovarian, 29.8 µM; in the test with HL-60(TB) leukemia, 75.7 µM. Moreover, the TGI with CAKI-1 renal stood at 23.9 µM; in the test with 786-0 renal, 33.6 µM; in the test on NCI-H460 lung it was 16 µM; in the test with ACHN renal it was 20.1 µM.
With `Nc1ccncc1/C=C1/C(=O)Nc2ccccc21`, the GI50 in the test with HCT-15 colon was 36.5 µM; with TK-10 renal, 54.7 µM; with UACC-257 melanoma it was over 100 µM; with HS 578T breast it was 41.2 µM; with OVCAR-8 ovarian, 62.5 µM; in the test on HL-60(TB) leukemia, 14.5 µM. Besides, the GI50 in the test on CAKI-1 renal was 30.2 µM; in the test with 786-0 renal, 34.8 µM; in the test with NCI-H460 lung, 28.4 µM; with ACHN renal, 43.7 µM. For the same molecule, the TGI in the test on HCT-15 colon was over 100 µM; in the test with TK-10 renal, over 100 µM; with UACC-257 melanoma, over 100 µM; with HS 578T breast, over 100 µM; in the test with OVCAR-8 ovarian it was over 100 µM; in the test with HL-60(TB) leukemia it was 39.8 µM. Further, the TGI with CAKI-1 renal is 89.7 µM; in the test on 786-0 renal it was over 100 µM; in the test with NCI-H460 lung, over 100 µM; in the test with ACHN renal it was over 100 µM.
As to `CCN(CC)CCNCC(=O)Oc1ccc(/C=C/C(=O)CC(=O)/C=C/c2ccc(OC(=O)CNCCN(CC)CC)c(OC)c2)cc1OC`, the GI50 with HCT-15 colon was 3.68 µM; in the test on TK-10 renal, 6.72 µM; in the test on UACC-257 melanoma, 3.58 µM; in the test with HS 578T breast, 3.59 µM; with OVCAR-8 ovarian it was 3.69 µM; in the test with HL-60(TB) leukemia, 3.39 µM. Further, the GI50 with CAKI-1 renal was 3.2 µM; in the test with 786-0 renal it was 2.38 µM; in the test on NCI-H460 lung it was 3.41 µM; with ACHN renal, 5.28 µM. Moreover, the TGI in the test on HCT-15 colon was 15.3 µM; in the test on TK-10 renal, 23.5 µM; in the test with UACC-257 melanoma it was 16.9 µM; in the test with HS 578T breast it was 26.4 µM; in the test on OVCAR-8 ovarian, 15 µM; in the test on HL-60(TB) leukemia it was 91.8 µM. The TGI worked out at 15.8 µM in the test on CAKI-1 renal, 5.93 µM in the test with 786-0 renal, 22.2 µM with NCI-H460 lung and 20.8 µM in the test on ACHN renal.
Turning to `COc1ccc(-n2cc(-c3ccc(Cl)c(Cl)c3)nc2SCc2cccc(C#N)c2)cc1`, the GI50 in the test with HCT-15 colon is 42.8 µM; in the test on TK-10 renal, 44.6 µM; in the test with UACC-257 melanoma, 66.9 µM; in the test with HS 578T breast, 18.4 µM; with OVCAR-8 ovarian, 18.6 µM; with HL-60(TB) leukemia it was over 100 µM. Further, the GI50 in the test on CAKI-1 renal was 18 µM; in the test on 786-0 renal it was 11.8 µM; in the test with NCI-H460 lung it was 51.5 µM; in the test with ACHN renal, 30.4 µM. In addition, the TGI in the test with HCT-15 colon, in the test on TK-10 renal, with UACC-257 melanoma, in the test with HS 578T breast, in the test on OVCAR-8 ovarian and in the test on HL-60(TB) leukemia was over 100 µM each time. The TGI was 48.8 µM with CAKI-1 renal, 40.2 µM with 786-0 renal, over 100 µM in the test on NCI-H460 lung and over 100 µM with ACHN renal.
Consider `N#CC(C(=O)/C(=N/Nc1nc(=S)[nH]n1N)C(C#N)c1ccccc1)c1ccccc1` (stereo not drawn), for which the TGI in the test with HCT-15 colon, with TK-10 renal, in the test on UACC-257 melanoma, with HS 578T breast, in the test with OVCAR-8 ovarian and in the test on HL-60(TB) leukemia was over 100 µM throughout. Moreover, the TGI with CAKI-1 renal, in the test on 786-0 renal, in the test with NCI-H460 lung and in the test with ACHN renal was over 100 µM in each case.
In the case of `O=C(O)c1c(-c2nccc3ccccc23)[nH]c(-c2ccccc2)c1S(=O)(=O)O`, the TGI in the test on HCT-15 colon, with TK-10 renal, with UACC-257 melanoma, in the test on HS 578T breast, in the test with OVCAR-8 ovarian and in the test with HL-60(TB) leukemia was over 100 µM each time. The TGI in the test on CAKI-1 renal, in the test on 786-0 renal, in the test with NCI-H460 lung and in the test with ACHN renal was over 100 µM in each case.
As to `CCN1C(=O)N(CC)C2C1NC(=S)N2/N=C/C=C/c1cccs1` (stereo not drawn), the GI50 is 0.307 µM with HCT-15 colon; over 47.5 µM in the test with TK-10 renal; 0.281 µM in the test on HS 578T breast; 0.548 µM in the test with OVCAR-8 ovarian; 0.281 µM in the test with HL-60(TB) leukemia; 0.248 µM in the test on CAKI-1 renal. Also, the GI50 is 0.615 µM in the test on 786-0 renal, 0.363 µM in the test with NCI-H460 lung and 0.804 µM in the test with ACHN renal. The TGI in the test on HCT-15 colon was over 100 µM; in the test on TK-10 renal, over 100 µM; in the test with UACC-257 melanoma, over 100 µM; in the test with OVCAR-8 ovarian, over 100 µM; in the test with HL-60(TB) leukemia it was 0.857 µM; in the test with CAKI-1 renal, over 100 µM. In addition, the TGI with 786-0 renal, in the test on NCI-H460 lung and in the test on ACHN renal was over 100 µM each time.
Turning to `O/N=C\c1c(O)ccc2ccccc12`, the TGI is over 100 µM with HCT-15 colon; over 100 µM in the test on TK-10 renal; over 100 µM in the test on UACC-257 melanoma; over 100 µM in the test on HS 578T breast; over 100 µM in the test on OVCAR-8 ovarian; 54.9 µM with HL-60(TB) leukemia. In addition, the TGI in the test on CAKI-1 renal is over 100 µM; in the test with 786-0 renal, over 100 µM; in the test on NCI-H460 lung, over 100 µM; in the test on ACHN renal, 70.1 µM.
In the case of `c1ccc2c3ccn4cc5c(cc4c-3nc2c1)CCCC5`, the GI50 in the test with HCT-15 colon is 24.1 µM; in the test with TK-10 renal it was 12.8 µM; with UACC-257 melanoma, 5.42 µM; in the test with HS 578T breast, 3.01 µM; in the test with OVCAR-8 ovarian, 3.62 µM; with HL-60(TB) leukemia, 0.81 µM. Further, the GI50 with CAKI-1 renal is 34.9 µM; in the test on 786-0 renal, 3.46 µM; in the test on NCI-H460 lung, 1.69 µM; in the test on ACHN renal it was 4.75 µM. Moreover, the TGI was over 100 µM in the test on HCT-15 colon; 26 µM with TK-10 renal; 38.2 µM with UACC-257 melanoma; 21.5 µM in the test with HS 578T breast; 51.2 µM in the test on OVCAR-8 ovarian; 3.81 µM in the test with HL-60(TB) leukemia. The TGI is over 100 µM in the test with CAKI-1 renal, 13.5 µM in the test with 786-0 renal, 3.85 µM in the test on NCI-H460 lung and 17.5 µM in the test with ACHN renal.
For the molecule `CCCS(=O)(=O)Nc1ccc(Nc2c3ccccc3nc3ccccc23)c(OC)c1`, the TGI stood at 6.41 µM in the test on HCT-15 colon; 15.6 µM in the test with TK-10 renal; 19.8 µM with UACC-257 melanoma; 16.7 µM in the test with HS 578T breast; 5.82 µM in the test with OVCAR-8 ovarian; 0.45 µM with HL-60(TB) leukemia. The TGI in the test on CAKI-1 renal turned out to be 13.7 µM; in the test on 786-0 renal, 3.49 µM; with NCI-H460 lung it was 2.6 µM; in the test with ACHN renal it was 4.02 µM.
Regarding `COc1cc(NC(C)CCCN)c2nccc(C)c2c1OC` (stereo not drawn), the GI50 is 11.5 µM in the test on HCT-15 colon; 19.8 µM in the test with TK-10 renal; 13.7 µM in the test on UACC-257 melanoma; 8.5 µM in the test with HS 578T breast; 14.5 µM with OVCAR-8 ovarian; 4.56 µM in the test with HL-60(TB) leukemia. For the same molecule, the GI50 in the test on CAKI-1 renal is 19 µM; in the test on 786-0 renal it was 20.3 µM; in the test on NCI-H460 lung, 14.1 µM; with ACHN renal, 20.7 µM. Moreover, the TGI was 24.5 µM in the test on HCT-15 colon; 45.8 µM with TK-10 renal; 29.4 µM in the test on UACC-257 melanoma; 35.4 µM in the test with HS 578T breast; 42.3 µM with OVCAR-8 ovarian; 16.8 µM with HL-60(TB) leukemia. Moreover, the TGI in the test on CAKI-1 renal stood at 40.8 µM; with 786-0 renal it was 55.7 µM; in the test on NCI-H460 lung, 29.5 µM; in the test with ACHN renal it was 50.1 µM.

For the origin of these results see PubChem BioAssay (NCI).
